Activity calls are given as the source filed them. The calls are words filed in the database; no cut-off is given here.
How the values were obtained:
PC-3 = experiment: Antiproliferative activity against AR negative human PC3 cells after 48 hrs by MTT assay; type: functional, cell-based; details: PC-3, 48 h
[1] = Selectivity ratio of IC50 for AR negative human PC3 cells to IC50 for AR T877A mutant in human LNCAP cells
[2] = Selectivity index, ratio of IC50 for mouse 3T3 cells to IC50 for AR T877A mutant in human LNCAP cells; type: functional
[3] = test system: Androgen receptor (Homo sapiens), P10275 [T878A]; experiment: Potency index, ratio of bicalutamide IC50 to compound IC50 for AR T877A mutant in human LNCAP cells assessed as inhibition of DHT-induced proliferation; type: cell-based
Chain of Androgen receptor (Homo sapiens), P10275 [T878A] (P10275 whole entry T878A): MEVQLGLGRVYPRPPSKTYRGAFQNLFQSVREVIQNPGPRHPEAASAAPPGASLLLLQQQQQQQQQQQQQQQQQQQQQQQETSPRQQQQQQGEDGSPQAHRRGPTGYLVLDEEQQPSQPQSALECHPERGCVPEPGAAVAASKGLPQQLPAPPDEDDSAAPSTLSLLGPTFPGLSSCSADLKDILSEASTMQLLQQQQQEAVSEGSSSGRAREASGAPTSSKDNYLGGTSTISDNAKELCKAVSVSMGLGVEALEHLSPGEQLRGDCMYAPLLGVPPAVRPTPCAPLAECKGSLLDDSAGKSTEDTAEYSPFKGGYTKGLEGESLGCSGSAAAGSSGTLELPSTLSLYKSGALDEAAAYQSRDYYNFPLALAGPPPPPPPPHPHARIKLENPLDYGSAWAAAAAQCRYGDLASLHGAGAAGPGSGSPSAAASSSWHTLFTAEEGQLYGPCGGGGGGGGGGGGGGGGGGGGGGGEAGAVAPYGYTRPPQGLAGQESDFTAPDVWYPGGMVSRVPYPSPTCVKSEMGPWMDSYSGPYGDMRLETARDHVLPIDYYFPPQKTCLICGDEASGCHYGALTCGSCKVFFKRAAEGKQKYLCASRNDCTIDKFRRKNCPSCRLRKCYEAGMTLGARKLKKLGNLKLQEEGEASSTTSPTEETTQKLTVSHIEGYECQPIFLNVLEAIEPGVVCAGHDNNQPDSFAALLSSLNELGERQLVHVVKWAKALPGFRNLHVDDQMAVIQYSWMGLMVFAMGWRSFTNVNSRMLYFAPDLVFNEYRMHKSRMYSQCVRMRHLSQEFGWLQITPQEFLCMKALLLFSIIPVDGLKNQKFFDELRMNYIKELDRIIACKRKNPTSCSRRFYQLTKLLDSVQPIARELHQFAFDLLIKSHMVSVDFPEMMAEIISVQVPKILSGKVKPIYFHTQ

[4] = target: T1, Estrogen receptor (Homo sapiens) (UniProt P03372); experiment: Activity at ER in human LNCAP cells assessed as inhibition of pS2 mRNA level at 5 uM after 24 hrs by SYBR Green dye based qPCR method; type: cell-based
T1 sequence (whole entry): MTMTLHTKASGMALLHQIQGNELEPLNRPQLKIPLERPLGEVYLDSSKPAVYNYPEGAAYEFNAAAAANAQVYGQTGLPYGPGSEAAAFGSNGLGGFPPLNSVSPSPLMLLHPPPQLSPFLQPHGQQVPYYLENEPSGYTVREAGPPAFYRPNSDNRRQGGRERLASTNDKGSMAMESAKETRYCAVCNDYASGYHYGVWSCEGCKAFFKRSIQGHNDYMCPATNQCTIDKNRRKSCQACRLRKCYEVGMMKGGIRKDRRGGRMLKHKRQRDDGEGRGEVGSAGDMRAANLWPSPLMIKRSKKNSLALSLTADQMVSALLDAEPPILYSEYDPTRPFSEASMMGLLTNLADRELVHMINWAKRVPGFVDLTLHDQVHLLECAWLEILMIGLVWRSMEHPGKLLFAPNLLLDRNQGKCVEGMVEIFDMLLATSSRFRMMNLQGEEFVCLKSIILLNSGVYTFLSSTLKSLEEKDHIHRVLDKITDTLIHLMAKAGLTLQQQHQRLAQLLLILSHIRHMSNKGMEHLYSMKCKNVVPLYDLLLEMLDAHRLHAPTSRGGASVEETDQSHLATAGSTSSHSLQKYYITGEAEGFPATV

[5] = test system: Androgen receptor (Homo sapiens), P10275 [T878A]; experiment: Antagonist activity at AR T877A mutant in human LNCAP cells assessed as inhibition of DHT-induced TMPRSS2 mRNA level at 1 uM after 24 hrs by SYBR Green dye based qPCR method; type: cell-based
[6] = test system: Androgen receptor (Homo sapiens), P10275 [T878A]; experiment: Potency index, ratio of R-bicalutamide IC50 to compound IC50 for AR T877A mutant in human LNCAP cells assessed as inhibition of DHT-induced proliferation; type: cell-based
[7] = test system: Androgen receptor (Homo sapiens), P10275 [T878A]; experiment: Antagonist activity at AR T877A mutant in human LNCAP cells assessed as inhibition of DHT-induced PSA mRNA level at 1 uM after 24 hrs by SYBR Green dye based qPCR method; type: cell-based
[8] = test system: Androgen receptor (Homo sapiens), P10275 [T878A]; experiment: Antagonist activity at AR T877A mutant in human LNCAP cells assessed as inhibition of DHT-induced Cyclin D1 mRNA level at 1 uM after 24 hrs by SYBR Green dye based qPCR method; type: cell-based
[9] = test system: Androgen receptor (Homo sapiens), P10275 [T878A]; experiment: Antagonist activity at AR T877A mutant in human LNCAP cells assessed as inhibition of DHT-induced c-Myc mRNA level at 1 uM after 24 hrs by SYBR Green dye based qPCR method; type: cell-based

SMILES	IC50 (PC-3) [µM]	Ratio IC50 [1]	Ratio IC50 [2]	other results
C[C@](O)(CS(=O)(=O)c1ccc(F)cc1)C(=O)Nc1ccc(C#N)c(C(F)(F)F)c1 [(R)-BICALUTAMIDE]	59.8			
O=C1c2ccccc2C(=O)N1c1nc(-c2ccc(Cl)cc2)cs1	44.9	1.71	1.91	
Cc1ccc(-c2csc(N3C(=O)c4ccccc4C3=O)n2)cc1	38.4	1.32	1.73	
N#Cc1ccc(-c2csc(N3C(=O)c4ccc(F)cc4C3=O)n2)cc1	43.1	7.23	7.09	Ratio IC50 [3]: 7.4; inhibition [4]: inactive; inhibition [5]: Active; Ratio IC50 [6]: 4.6; inhibition [7]: Active; inhibition [8]: Active; inhibition [9]: Active
O=C1c2ccccc2C(=O)N1c1nc(-c2ccc(F)cc2)cs1	37.2	1.3	1.36	
O=C1c2ccccc2C(=O)N1c1nc(-c2ccc([N+](=O)[O-])cc2)cs1	41.8	3.17	3.15	
O=C1c2ccc(F)cc2C(=O)N1c1nc(-c2ccc([N+](=O)[O-])cc2)cs1	39.9	5.12	4.69	
CC(O)(CS(=O)(=O)c1ccc(F)cc1)C(=O)Nc1ccc(C#N)c(C(F)(F)F)c1 (stereo unspecified) [BICALUTAMIDE]	60.7			
COc1ccc(-c2csc(N3C(=O)c4ccc(F)cc4C3=O)n2)cc1	41.3	5.05	5.04	
O=C1c2ccc(F)cc2C(=O)N1c1nc(-c2ccccc2)cs1	40.2	1.17	1.9	
Cc1ccc(-c2csc(N3C(=O)c4ccc(F)cc4C3=O)n2)cc1	44.4	1.71	1.51	
O=C1c2ccc(F)cc2C(=O)N1c1nc(-c2ccc(Cl)cc2)cs1	38	1.35	1.59	
COc1ccc(-c2csc(N3C(=O)c4ccccc4C3=O)n2)cc1	42.9	3.14	3.29	
O=C1c2ccc(F)cc2C(=O)N1c1nc(-c2ccc(F)cc2)cs1	39.5	1.8	2.04	
O=C1c2ccccc2C(=O)N1c1nc(-c2ccccc2)cs1	43.9	1.19	1.26	
N#Cc1ccc(-c2csc(N3C(=O)c4ccccc4C3=O)n2)cc1	40.3	3.67	3.57	

Reference: ChEMBL document CHEMBL3994642, “Design, synthesis and biological evaluation of 2-(4-phenylthiazol-2-yl) isoindoline-1,3-dione derivatives as anti-prostate cancer agents” (Bioorg Med Chem Lett, 2017)
